The values that follow come from ChEMBL document CHEMBL3988442, “University of Dundee, Small-Polar-MMV Screening Library” (2021).

A short description of test [1]: microbe, parasite or virus in culture. The following applies: Mycobacterium tuberculosis, 96 h, read-out: pIC50 (converted).
Test [2] in a line: microbe, parasite or virus in culture. The conditions noted are these: Mycobacterium tuberculosis, 72 h, read-out: pIC50 (converted).

Consider `CCOC(=O)c1ccccc1N1C(=O)C=CC1=O`, for which the IC50 was 83.7 µM in test [1] and 60.4 µM in test [2].

In the case of `CSc1cc(NC(=O)NCCc2ccccn2)ccn1`, the IC50 in test [1] was 438 µM; in test [2] it was 411 µM.

For the compound `CCN(CC)CCS(=O)(=O)c1ccccc1`, the results for the IC50 in test [1] and in test [2] were over 501 µM and 300 µM, respectively.

Regarding `O=C(c1cscn1)N1CCN(c2ccc(Cl)cn2)CC1`, the IC50 is 249 µM in test [1] and 116 µM in test [2].

As to `CCc1cc(N(C)Cc2ccncn2)n2nc(C)c(C)c2n1`, the IC50 in test [1] is 14.2 µM; in test [2], 33.8 µM.

Regarding `O=C(Nc1ccc(Cl)cn1)c1ccncc1`, the values for the IC50 in test [1] and in test [2] were over 501 µM and 304 µM, respectively.

Regarding `CCCc1nc2c(c(C)c(C)n2Cc2ccncc2)c(N)c1CC`, the IC50 in test [1] and in test [2] was over 50.1 µM in each case.

On to `CCOc1ccnc(N[C@@H](Cc2ccccc2)C(N)=O)n1`, for which the IC50 in test [1] and in test [2] was over 50.1 µM in each case.

`Cn1nc(C(F)(F)F)c(Cl)c1C(=O)N[C@@H]1CCNC1`: the values for the IC50 in test [1] and in test [2] were over 501 µM and 168 µM, respectively.

As to `Cc1cc(Cl)ccc1C(=O)C1CCCN(Cc2cnc(N(C)C)s2)C1` (stereo not drawn), the IC50 is 40.8 µM in test [1] and 45.7 µM in test [2].

For `CSc1ccc(C(CN)N(C)C)cc1` (stereo not drawn), the IC50 is 319 µM in test [1] and 215 µM in test [2].

As to `Cn1c(-c2ccccc2Cl)nc2cc(C(=O)NC(CO)CO)cnc21`, the IC50 in test [1] and in test [2] was over 50.1 µM throughout.

Take `Cc1csc(NC(=O)CNC(=O)c2cccs2)n1`: the IC50 was over 501 µM in test [1] and 185 µM in test [2].

`Cc1oc(-c2ccc(Cl)cc2)nc1C(=O)NC1=NCCS1`: the IC50 in test [1] and in test [2] was over 50.1 µM each time.

In the case of `COc1ccc(C2CCN(CC(=O)NC(N)=O)C2)cc1` (stereo not drawn), the IC50 in test [1] and in test [2] was over 501 µM each time.

Turning to `CNC(=O)Nc1ccc(OC)c(OCCOC)c1`, the IC50 in test [1] was 219 µM; in test [2], 138 µM.

In the case of `CCOC(C(=O)N(C)CC(N)=O)c1ccccc1` (stereo not drawn), the IC50 in test [1] and in test [2] was over 501 µM in each case.

With `COc1cc(CN)cc(Br)c1OC`, the results for the IC50 in test [1] and in test [2] were over 501 µM and 78.5 µM, respectively.

With `Nc1nc(-c2c(F)cccc2F)co1`, the IC50 in test [1] and in test [2] was over 501 µM in each case.

Consider `CCC(=O)Nc1nnc2n(Cc3cccc(OC)c3)[nH]c(C)c1-2`, for which the IC50 in test [1] and in test [2] was over 50.1 µM in each case.

As to `Cc1cc(Br)cc(C(=O)NCc2nccc(N)n2)c1`, the IC50 in test [1] and in test [2] was over 501 µM each time.

As to `CC1(NC(=O)CC2CCc3ccccc32)CCOCC1` (stereo not drawn), the IC50 in test [1] and in test [2] was over 50.1 µM each time.

Regarding `O=C(c1cc(C2CC2)on1)N1CC(O)(C2CC2)C1`, the IC50 in test [1] is 44.5 µM; in test [2], 47.3 µM.

Regarding `CC(C)(O)CSc1nnc(NCc2ccco2)s1`, the IC50 in test [1] is 55.2 µM; in test [2], 118 µM.

In the case of `Cc1cccc(NC(=O)CN(C)Cc2nnsc2Cl)n1`, the results for the IC50 in test [1] and in test [2] were over 501 µM and 246 µM, respectively.

Turning to `COc1cc(-c2cccc3c2OC(CN)C3)cc(OC)c1OC` (stereo not drawn), the IC50 in test [1] and in test [2] was 43.9 µM throughout.

As for `CC1CCN(C(=O)c2cnn(-c3cccnc3)c2)CC1`, the IC50 in test [1] is 67.4 µM; in test [2], 307 µM.

For the compound `COc1ccc(OCCSc2n[nH]c(N)n2)cc1`, the IC50 is 220 µM in test [1] and 199 µM in test [2].

For the compound `FC(F)(F)c1ccc2nc([C@H]3CCN(C4CCCCC4)C3)[nH]c2c1`, the IC50 in test [1] is 24.9 µM; in test [2], 27.5 µM.

As for `Brc1cc2c(cc1CN1CCCNCC1)OCO2`, the IC50 in test [1] was 460 µM; in test [2], 112 µM.

`COc1ccc(C(=O)N2CCOC(Cc3cccc(C(F)(F)F)c3)C2)o1` (stereo not drawn): the results for the IC50 in test [1] and in test [2] were 10.7 µM and 35.1 µM, respectively.

`O=C(CO)N1CCCC(CCc2ccccc2F)C1` (stereo not drawn): the IC50 in test [1] is 142 µM; in test [2] it was 196 µM.

Consider `COCC(=O)N1CCC2(CC1)OCCO2`, for which the IC50 in test [1] and in test [2] was over 501 µM each time.

As for `CCc1nc2n(n1)CC(NCc1nc(C)c(C)o1)CC2` (stereo not drawn), the IC50 in test [1] and in test [2] was over 50.1 µM in each case.

As to `COc1ccc(CCNc2ccc3nnnn3n2)cc1`, the IC50 in test [1] and in test [2] was over 501 µM throughout.

As to `CN(Cc1ccco1)C(=O)CN1CCc2sccc2C1`, the IC50 is 89.2 µM in test [1] and 60 µM in test [2].

As for `CCn1nnc(NCc2ccccc2)n1`, the IC50 in test [1] is over 501 µM; in test [2], 229 µM.

In the case of `CCC(CO)(CO)NCc1csc(-c2cccs2)n1`, the IC50 in test [1] and in test [2] was over 501 µM in each case.

For the compound `CCCc1nnc(NCc2ccc(C)cn2)o1`, the IC50 was 212 µM in test [1] and 138 µM in test [2].

For `CCCn1nnc(NC(=O)c2ccccc2F)n1`, the IC50 is over 501 µM in test [1] and 59.9 µM in test [2].

`O=c1c2ccccc2cnn1CN1CCCC1`: the IC50 in test [1] and in test [2] was over 501 µM in each case.

As for `O=C(c1ccc(Cl)o1)N1CCN(Cc2ccco2)CC1`, the IC50 in test [1] is 69.4 µM; in test [2], 102 µM.

For the compound `O=C(CCN1CCN(c2ccccn2)CC1)NC1CC1`, the IC50 in test [1] and in test [2] was over 501 µM in each case.

Regarding `CN(C)[C@H]1C[C@@H](Cc2cc(-c3ccc(F)cc3)on2)C1(C)C`, the IC50 in test [1] and in test [2] was over 50.1 µM in each case.

For `COCCN(C)CCNC(=O)c1ccc(Cl)cc1`, the results for the IC50 in test [1] and in test [2] were over 501 µM and 165 µM, respectively.

With `CCc1cc(CNC(=O)c2ccc(F)c(F)c2)[nH]n1`, the IC50 in test [1] is 102 µM; in test [2], 175 µM.

Regarding `Nc1cc(C2CCN(C(=O)Cc3ccsc3)CC2)no1`, the IC50 was over 501 µM in test [1] and 264 µM in test [2].

With `COc1cccc(-c2noc(-c3ccc(NCCCO)nc3)n2)c1OC`, the IC50 in test [1] is 21.2 µM; in test [2] it was over 50.1 µM.

With `CC(=O)NCc1ccc(C(=O)NC2CCc3nc(C)cn3C2)o1` (stereo not drawn), the IC50 in test [1] and in test [2] was over 50.1 µM throughout.

As for `COc1cccc(S(=O)(=O)CCN2CCN(C)CC2)c1`, the IC50 in test [1] and in test [2] was over 501 µM throughout.

Take `CC(C)C(=O)NCCCNC(=O)c1ccc(F)cc1O`: the IC50 is over 501 µM in test [1] and 125 µM in test [2].

As for `CC(CCc1ccc(O)cc1)NC1(CO)CC1` (stereo not drawn), the values for the IC50 in test [1] and in test [2] were over 501 µM and 199 µM, respectively.

With `Cc1nn(CC(=O)N(C)C)c(=O)c2ccccc12`, the IC50 in test [1] and in test [2] was over 501 µM in each case.

On to `Cn1nccc1C(=O)NC1CCc2ccccc2OC1` (stereo not drawn), for which the IC50 in test [1] and in test [2] was over 501 µM each time.

Regarding `CC(C)Nc1nc(N2CCCC2)nc2c1CN(c1ncc(F)cn1)CC2`, the results for the IC50 in test [1] and in test [2] were 28.3 µM and 46.4 µM, respectively.

Turning to `CN(Cc1cc(Br)cs1)C(=O)CC1(N)CCC1`, the IC50 in test [1] was over 501 µM; in test [2] it was 158 µM.

In the case of `COC(=O)c1ccc(CCNC(=O)C2CCCO2)cc1` (stereo not drawn), the IC50 in test [1] was 383 µM; in test [2] it was 281 µM.

`O=C(NCCO)c1ccc(OCc2cccs2)cc1`: the IC50 in test [1] is over 501 µM; in test [2] it was 378 µM.

As for `O=S(=O)(CCN1CCCC(O)C1)c1ccc(Br)cc1` (stereo not drawn), the IC50 in test [1] is 174 µM; in test [2], 359 µM.
